From patent US9669031B2, “MNK inhibitors and methods related thereto” (eFFECTOR Therapeutics, Inc., priority 2014, dated 2017)
Where two headings read alike, the source gives them in different places.

Legend:
[1] = Balb/c, mouse, in vivo, po, 10 mg/kg
in vivo = settings: Balb/c, mouse, po, 10 mg/kg; for AUC(0-t): AUClast; for half-life: T½
[2] = Pharmacokinetics in Balb/c mice, single intravenous bolus administration; assay type: in vivo; settings: intravenous bolus 1 mg/kg, gender F; for AUC(0-inf) / half-life / Vd: female, mouse, plasma; for AUC(0-inf): read-out: AUCINF_obs; for half-life: read-out: T½ (converted); for Vd: read-out: Vss
[3] = formulation 10DMI/15EtOH/35PG/40Saline
[4] = formulation 10DMI/15EtOH/35PG/40D5W

Row | Compound | Tlast ([1]; female) [h] | AUC(0-t) (in vivo; female) [ng·h/mL] | Cmax (in vivo; female) [ng/mL] | Tmax (in vivo; female) [h] | half-life (in vivo; female) [h] | also measured
1 | CC1(C2CCCC2)NC(=O)c2ccc(Nc3ccncn3)c(=O)n21 (stereo not drawn) [Cpd. No. 9, 3-cyclopentyl-3-methyl-6-(pyrimidin-4-ylamino)-2,3-dihydroimidazo[1,5-a]pyridine-1,5-dione] |  |  |  |  |  | Tlast ([1]; male): 8 h; AUC(0-t) (in vivo; male): 4830 ng·h/mL; Cmax (in vivo; male): 5050 ng/mL; Tmax (in vivo; male): 0.5 h; half-life (in vivo; male): 0.831 h
2 | CC1(C)NC(=O)c2ccc(Nc3cc(NC(=O)C4CC4)ncn3)c(=O)n21 [Cpd. No. 10, N-(6-((3,3-dimethyl-1,5-dioxo-1,2,3,5-tetrahydroimidazo[1,5-a]pyridin-6-yl)amino)pyrimidin-4-yl)cyclopropanecarboxamide] | 8 | 6420 | 1720 | 0.5 | 1.87 | AUC(0-inf) [2, 3]: 396 ng·h/mL; half-life [2, 3]: 2.8 h; Vd [2, 3]: 5.45 L/kg; Cl_obs [2, 3]: 42.1 mL/min/kg; Tlast ([1]; male): 24 h; AUC(0-t) (in vivo; male): 8750 ng·h/mL; Cmax (in vivo; male): 2160 ng/mL; Tmax (in vivo; male): 1 h; half-life (in vivo; male): 4.22 h
3 | CC1(C(F)(F)F)NC(=O)c2ccc(Nc3ccncn3)c(=O)n21 (stereo not drawn) [Cpd. No. 14, 3-methyl-6-(pyrimidin-4-ylamino)-3-(trifluoromethyl)-2,3-dihydroimidazo[1,5-a]pyridine-1,5-dione] |  |  |  |  |  | Tlast ([1]; male): 8 h; AUC(0-t) (in vivo; male): 255 ng·h/mL; Cmax (in vivo; male): 405 ng/mL; Tmax (in vivo; male): 0.5 h
4 | O=C1NC2(CCCNC2)n2c1ccc(Nc1ccncn1)c2=O (stereo not drawn) [Cpd. No. 20, 6-(pyrimidin-4-ylamino)-1H-spiro[imidazo[1,5-a]pyridine-3,3′-piperidine]-1,5(2H)-dione] | 4 | 2090 | 2240 | 0.5 | 0.643 | 
5 | O=C1NC2(CCCC2)n2c1ccc(Nc1cc(NC(=O)C3CC3)ncn1)c2=O [Cpd. No. 21, N-[6-[(1,5-dioxospiro[2H-imidazo[1,5-a]pyridine-3,1′-cyclopentane]-6-yl)amino]pyrimidin-4-yl]cyclopropanecarboxamide] | 4 | 109 | 50.2 | 0.5 | 2.66 | 
6 | CC1(CC(F)(F)F)NC(=O)c2ccc(Nc3cc(NC(=O)C4CC4)ncn3)c(=O)n21 (stereo not drawn) [Cpd. No. 22, N-(6-((3-methyl-1,5-dioxo-3-(2,2,2-trifluoroethyl)-1,2,3,5-tetrahydroimidazo[1,5-a]pyridin-6-yl)amino)pyrimidin-4-yl)cyclopropanecarboxamide] | 8 | 1620 | 371 | 2 | 1.93 | 
7 | CC1(C2CCCC2)NC(=O)c2ccc(Nc3cc(NC(=O)C4CC4)ncn3)c(=O)n21 (stereo not drawn) [Cpd. No. 23, N-[6-[(3-cyclopentyl-3-methyl-1,5-dioxo-2H-imidazo[1,5-a]pyridin-6-yl)amino]pyrimidin-4-yl]cyclopropanecarboxamide] | 8 | 75.7 | 17.5 | 1 | 3.49 | 
8 | CC1(C(F)(F)F)NC(=O)c2ccc(Nc3cc(NC(=O)C4CC4)ncn3)c(=O)n21 (stereo not drawn) [Cpd. No. 24, N-[6-[[3-methyl-1,5-dioxo-3-(trifluoromethyl)-2H-imidazo[1,5-a]pyridin-6-yl]amino]pyrimidin-4-yl]cyclopropanecarboxamide] | 8 | 921 | 192 | 2 | 1.91 | 
9 | CC1(C(F)(F)F)NC(=O)c2c(Cl)cc(Nc3ccncn3)c(=O)n21 (stereo not drawn) [Cpd. No. 35, 8-chloro-3-methyl-6-(pyrimidin-4-ylamino)-3-(trifluoromethyl)-2H-imidazo[1,5-a]pyridine-1,5-dione] | 24 | 71300 | 6930 | 2 | 3.46 | 
10 | CC1(C)NC(=O)c2c(Cl)cc(Nc3cc(NC(=O)C4CC4)ncn3)c(=O)n21 [Cpd. No. 43, N-[6-[(8-chloro-3,3-dimethyl-1,5-dioxo-2H-imidazo[1,5-a]pyridin-6-yl)amino]pyrimidin-4-yl]cyclopropanecarboxamide] | 8 | 132 | 21.8 | 2 | 6.75 | 
11 | O=C1NC2(CCCCC2)n2c1c(Cl)cc(Nc1cc(NC(=O)C3CC3)ncn1)c2=O [Cpd. No. 45, N-(6-((8′-chloro-1′,5′-dioxo-1′,5′-dihydro-2′H-spiro[cyclohexane-1,3′-imidazo[1,5-a]pyridin]-6′-yl)amino)pyrimidin-4-yl)cyclopropanecarboxamide] | 8 | 42.9 | 9.16 | 2 | 7.55 | 
12 | O=C1NC2(CCC(F)(F)CC2)n2c1c(Cl)cc(Nc1cc(NC(=O)C3CC3)ncn1)c2=O [Cpd. No. 50, N-[6-[(8-chloro-4′,4′-difluoro-1,5-dioxo-spiro[2H-imidazo[1,5-a]pyridine-3,1′-cyclohexane]-6-yl)amino]pyrimidin-4-yl]cyclopropanecarboxamide] | 24 |  |  | 4 |  | AUC(0-inf) [2, 3]: 887 ng·h/mL; half-life [2, 3]: 2.47 h; Vd [2, 3]: 3.18 L/kg; Cl_obs [2, 3]: 18.8 mL/min/kg
13 | CC1(c2cccc(Cl)c2)NC(=O)c2c(Cl)cc(Nc3cc(NC(=O)C4CC4)ncn3)c(=O)n21 (stereo not drawn) [Cpd. No. 51, N-[6-[[8-chloro-3-(3-chlorophenyl)-3-methyl-1,5-dioxo-2H-imidazo[1,5-a]pyridin-6-yl]amino]pyrimidin-4-yl]cyclopropanecarboxamide] | 24 | 31300 | 3160 |  | 7.38 | AUC(0-inf) [2, 3]: 2500 ng·h/mL; half-life [2, 3]: 5.78 h; Vd [2, 3]: 2.79 L/kg; Cl_obs [2, 3]: 6.66 mL/min/kg; AUClast ([1]; female): 35800 ng·h/mL; T½ ([1]; female): 8.36 h
14 | CC1(c2cccc(F)c2)NC(=O)c2c(Cl)cc(Nc3cc(NC(=O)C4CC4)ncn3)c(=O)n21 (stereo not drawn) [Cpd. No. 52, N-[6-[[8-chloro-3-(3-fluorophenyl)-3-methyl-1,5-dioxo-2H-imidazo[1,5-a]pyridin-6-yl]amino]pyrimidin-4-yl]cyclopropanecarboxamide] | 24 | 38100 | 3370 |  | 5.41 | AUClast ([1]; female): 22300 ng·h/mL; T½ ([1]; female): 3.56 h
15 | Cl.O=C1NC2(CCCNC2)n2c1c(Cl)cc(Nc1ccncn1)c2=O (stereo not drawn) [Cpd. No. 54, 8-chloro-6-(pyrimidin-4-ylamino)spiro[2H-imidazo[1,5-a]pyridine-3,3′-piperidine]-1,5-dione hydrochloride] |  |  | 1050 | 0.5 |  | 
16 | CC1(CC(F)(F)F)NC(=O)c2c(Cl)cc(Nc3ccncn3)c(=O)n21 (stereo not drawn) [Cpd. No. 55, 8-chloro-3-methyl-6-(pyrimidin-4-ylamino)-3-(2,2,2-trifluoroethyl)-2H-imidazo[1,5-a]pyridine-1,5-dione] | 24 | 56900 | 6170 | 1 | 2.61 | 
17 | CC1(c2cccc(Cl)c2)NC(=O)c2c(Cl)cc(Nc3ccncn3)c(=O)n21 (stereo not drawn) [Cpd. No. 58, 8-chloro-3-(3-chlorophenyl)-3-methyl-6-(pyrimidin-4-ylamino)-2H-imidazo[1,5-a]pyridine-1,5-dione] | 24 | 5430 | 690 | 2 | 5.32 | 
18 | Nc1cc(Nc2cc(Cl)c3n(c2=O)C2(CCCCC2)NC3=O)ncn1 [Cpd. No. 70, 6′-((6-aminopyrimidin-4-yl)amino)-8′-chloro-2′H-spiro[cyclohexane-1,3′-imidazo[1,5-a]pyridine]-1′,5′-dione] | 8 | 1470 | 983 | 0.25 | 2 | AUC(0-inf) [2, 4]: 333 ng·h/mL; half-life [2, 4]: 0.561 h; Vd [2, 4]: 1.8 L/kg; Cl_obs [2, 4]: 50.1 mL/min/kg; AUClast ([1]; female): 2010 ng·h/mL; T½ ([1]; female): 3.74 h
19 | Cl.O=C1NC2(CCCCC2)n2c1c(Cl)cc(Nc1ccncn1)c2=O [Cpd. No. 109, 8-chloro-6-(pyrimidin-4-ylamino)spiro[2H-imidazo[1,5-a]pyridine-3,1′-cyclohexane]-1,5-dione hydrochloride] |  |  | 630 | 0.3 | 2.5 | 
20 | Cl.O=C1NC2(CCC(F)(F)CC2)n2c1c(Cl)cc(Nc1ccncn1)c2=O [Cpd. No. 110, 8-chloro-4′,4′-difluoro-6-(pyrimidin-4-ylamino)spiro[2H-imidazo[1,5-a]pyridine-3,1′-cyclohexane]-1,5-dione hydrochloride] |  |  | 1700 | 0.3 | 2.6 | 
